Assay results published in ChEMBL document CHEMBL1153803, “Parallel synthesis of chiral pentaamines and pyrrolidine containing bis-heterocyclic libraries. Multiple scaffolds with multiple building blocks: a double diversity for the identification of new antitubercular compounds” (Bioorg Med Chem Lett, 2009).
≈ marks a conversion by molar mass, not a printed value.

Key:
[1] = test system: Mycobacterium tuberculosis; experiment: Antimicrobial activity against Mycobacterium tuberculosis H37Rv ATCC 27294 by microplate Almar blue assay; assay type: functional; conditions: Mycobacterium tuberculosis, H37Rv ATCC 27294; read-out: MIC
[2] = Selective index, the ratio of IC50 in the african green monkey Vero cells to the MIC to Mycobacterium tuberculosis H37Rv ATCC 27294; assay type: functional
[3] = test system: Mycobacterium tuberculosis; experiment: Antimicrobial activity against Mycobacterium tuberculosis H37Rv ATCC 27294 at 6.25 ug/mL by broth microdilution assay; assay type: functional
Vero = experiment: Cytotoxicity against african green monkey Vero cells at after 72 hrs by MTT assay; assay type: cell-based, Chlorocebus sabaeus; conditions: Chlorocebus sabaeus, Vero, 72 h; read-out: IC50

Compound	MIC [1] [µg/mL]	Selectivity Index [2]	inhibition at 6.25 µg/mL [3] [%]	IC50 (Vero) [µg/mL]
CC(C)CCCN1C(=N)N([C@@H](Cc2ccccc2)CN2CCCC2CN2C(=N)NC[C@@H]2Cc2ccccc2)C[C@@H]1Cc1ccccc1 (stereo not given in full)	7.8 (≈ 12.3 µM)	3.97	93	31 (≈ 48.9 µM)
N=C1NC[C@H](Cc2ccccc2)N1CC1CCCN1C[C@H](Cc1ccccc1)N1C[C@H](Cc2ccccc2)N(CCC23CC4CC(CC(C4)C2)C3)C1=N (stereo not given in full)	3.9 (≈ 5.48 µM)	3.7	91	14.5 (≈ 20.3 µM)
N=C1NC[C@H](Cc2ccccc2)N1CC1CCCN1C[C@H](Cc1ccccc1)N1C[C@H](Cc2ccccc2)N(CCCCC2CCCCC2)C1=N (stereo not given in full)	3.9 (≈ 5.67 µM)	3.7	91	14.3 (≈ 20.8 µM)
N=C1NC[C@H](Cc2ccccc2)N1CC1CCCN1C[C@H](Cc1ccccc1)N1C[C@H](Cc2ccccc2)N(CCC2CCCCC2)C1=N (stereo not given in full)	3.9 (≈ 5.91 µM)	3.8	94	13.9 (≈ 21.1 µM)
N=C1NC[C@H](Cc2ccccc2)N1CC1CCCN1C[C@H](Cc1ccccc1)N1C[C@H](Cc2ccccc2)N(CCC2CC3CCC2C3)C1=N (stereo not given in full)	7.8 (≈ 11.6 µM)	1.98	94	15.5 (≈ 23 µM)
CC(C)(C)C1CCC(CN2C(=N)N([C@@H](Cc3ccccc3)CN3CCCC3CN3C(=N)NC[C@@H]3Cc3ccccc3)C[C@@H]2Cc2ccccc2)CC1 (stereo not given in full)	7.8 (≈ 11.1 µM)	1.95	94	15.2 (≈ 21.7 µM)
S=C1NC[C@H](Cc2ccccc2)N1CC1CCCN1C[C@H](Cc1ccccc1)N1C[C@H](Cc2ccccc2)N(CC2CCCCC2)C1=S (stereo not given in full)	3.9 (≈ 5.73 µM)	2.2	97	8.47 (≈ 12.5 µM)
c1ccc(CCN2CCN([C@@H](CC3CCCCC3)CN3CCCC3CN3CCNC[C@@H]3Cc3ccccc3)C[C@@H]2Cc2ccccc2)cc1 (stereo not given in full)	2 (≈ 3.02 µM)	0.5	100	0.99 (≈ 1.5 µM)
c1ccc(C[C@H]2CNCCN2CC2CCCN2C[C@H](Cc2ccccc2)N2CCN(CCCCC3CCCCC3)[C@@H](Cc3ccccc3)C2)cc1 (stereo not given in full)	2 (≈ 2.9 µM)	0.5	99	1 (≈ 1.45 µM)
c1ccc(C[C@H]2CNCCN2CC2CCCN2C[C@H](Cc2ccccc2)N2CCN(CC34CC5CC(CC(C5)C3)C4)[C@@H](Cc3ccccc3)C2)cc1 (stereo not given in full)	2 (≈ 2.86 µM)	0.49	97	0.97 (≈ 1.39 µM)
c1ccc(C[C@H]2CNCCN2CC2CCCN2C[C@H](Cc2ccccc2)N2CCN(CCCC3CCCCC3)[C@@H](Cc3ccccc3)C2)cc1 (stereo not given in full)	2 (≈ 2.96 µM)	0.47	99	0.94 (≈ 1.39 µM)
CC(C)CCCN1CCN([C@@H](Cc2ccccc2)CN2CCCC2CN2CCNC[C@@H]2Cc2ccccc2)C[C@@H]1Cc1ccccc1 (stereo not given in full)	2 (≈ 3.14 µM)	0.45	99	0.89 (≈ 1.4 µM)
Brc1cccc(CCCN2CCN([C@@H](Cc3ccccc3)CN3CCCC3CN3CCNC[C@@H]3Cc3ccccc3)C[C@@H]2Cc2ccccc2)c1 (stereo not given in full)	3.9 (≈ 5.21 µM)	0.29	99	1.12 (≈ 1.5 µM)
FC(F)(F)c1cccc(CCN2CCN([C@@H](Cc3ccccc3)CN3CCCC3CN3CCNC[C@@H]3Cc3ccccc3)C[C@@H]2Cc2ccccc2)c1 (stereo not given in full)	3.9 (≈ 5.39 µM)	0.29	99	1.12 (≈ 1.55 µM)
Oc1ccc(CCN2CCN([C@@H](Cc3ccccc3)CN3CCCC3CN3CCNC[C@@H]3Cc3ccccc3)C[C@@H]2Cc2ccccc2)cc1 (stereo not given in full)	3.9 (≈ 5.8 µM)	0.28	99	1.11 (≈ 1.65 µM)
Cc1cccc(CCN2CCN([C@@H](Cc3ccccc3)CN3CCCC3CN3CCNC[C@@H]3Cc3ccccc3)C[C@@H]2Cc2ccccc2)c1 (stereo not given in full)	3.9 (≈ 5.82 µM)	0.27	99	1.05 (≈ 1.57 µM)
c1ccc(CCN2CCN([C@H](Cc3ccc4ccccc4c3)CN3CCCC3CN3CCNC[C@@H]3Cc3ccccc3)C[C@@H]2Cc2ccccc2)cc1 (stereo not given in full)	3.9 (≈ 5.52 µM)	0.27	100	1.06 (≈ 1.5 µM)
Fc1ccc(CCN2CCN([C@@H](Cc3ccccc3)CN3CCCC3CN3CCNC[C@@H]3Cc3ccccc3)C[C@@H]2Cc2ccccc2)cc1 (stereo not given in full)	3.9 (≈ 5.79 µM)	0.27	98	1.05 (≈ 1.56 µM)
Clc1ccc(CCN2CCN([C@@H](Cc3ccccc3)CN3CCCC3CN3CCNC[C@@H]3Cc3ccccc3)C[C@@H]2Cc2ccccc2)cc1Cl (stereo not given in full)	3.9 (≈ 5.38 µM)	0.27	99	1.07 (≈ 1.48 µM)
CC(C)[C@@H](CN1CCCC1CN1CCNC[C@@H]1Cc1ccccc1)N1CCN(CCc2ccccc2)[C@@H](Cc2ccccc2)C1 (stereo not given in full)	3.9 (≈ 6.42 µM)	0.26	100	1 (≈ 1.64 µM)

Compound	MIC [1] [µg/mL]	Selectivity Index [2]	inhibition at 6.25 µg/mL [3] [%]	IC50 (Vero) [µg/mL]
CCCC[C@@H](CN1CCCC1CN1CCNC[C@@H]1Cc1ccccc1)N1CCN(CCc2ccccc2)[C@@H](Cc2ccccc2)C1 (stereo not given in full)	3.9 (≈ 6.27 µM)	0.26	100	1 (≈ 1.61 µM)
c1ccc(CCN2CCN([C@@H](Cc3ccc4ccccc4c3)CN3CCCC3CN3CCNC[C@@H]3Cc3ccccc3)C[C@@H]2Cc2ccccc2)cc1 (stereo not given in full)	3.9 (≈ 5.52 µM)	0.26	100	1 (≈ 1.42 µM)
CCOc1ccc(CCN2CCN([C@@H](Cc3ccccc3)CN3CCCC3CN3CCNC[C@@H]3Cc3ccccc3)C[C@@H]2Cc2ccccc2)cc1 (stereo not given in full)	3.9 (≈ 5.57 µM)	0.26	98	1.03 (≈ 1.47 µM)
CCCCCCCN1CCN([C@@H](Cc2ccccc2)CN2CCCC2CN2CCNC[C@@H]2Cc2ccccc2)C[C@@H]1Cc1ccccc1 (stereo not given in full)	3.9 (≈ 6 µM)	0.26	99	1.03 (≈ 1.58 µM)
CCC(C)CCN1CCN([C@@H](Cc2ccccc2)CN2CCCC2CN2CCNC[C@@H]2Cc2ccccc2)C[C@@H]1Cc1ccccc1 (stereo not given in full)	3.9 (≈ 6.13 µM)	0.26	96	1 (≈ 1.57 µM)
c1ccc(C[C@H]2CNCCN2CC2CCCN2C[C@H](Cc2ccccc2)N2CCN(CCc3ccc(-c4ccccc4)cc3)[C@@H](Cc3ccccc3)C2)cc1 (stereo not given in full)	3.9 (≈ 5.33 µM)	0.26	97	1 (≈ 1.37 µM)
CC(C)C[C@@H](CN1CCCC1CN1CCNC[C@@H]1Cc1ccccc1)N1CCN(CCc2ccccc2)[C@@H](Cc2ccccc2)C1 (stereo not given in full)	3.9 (≈ 6.27 µM)	0.25	100	0.99 (≈ 1.59 µM)
c1ccc(CCN2CCN([C@@H](Cc3ccccc3)CN3CCCC3CN3CCNC[C@@H]3Cc3ccccc3)C[C@H]2CC2CCCCC2)cc1 (stereo not given in full)	3.9 (≈ 5.89 µM)	0.25	98	0.97 (≈ 1.47 µM)
c1ccc(CCN2CCN([C@H](CC3CCCCC3)CN3CCCC3CN3CCNC[C@@H]3Cc3ccccc3)C[C@@H]2Cc2ccccc2)cc1 (stereo not given in full)	3.9 (≈ 5.89 µM)	0.24	98	0.92 (≈ 1.39 µM)
c1ccc(C[C@H]2CNCCN2CC2CCCN2C[C@H](Cc2ccccc2)N2CCN(CC3(c4ccccc4)CC3)[C@@H](Cc3ccccc3)C2)cc1 (stereo not given in full)	3.9 (≈ 5.72 µM)	0.24	99	0.94 (≈ 1.38 µM)
Cc1ccc(CN2CCN([C@@H](Cc3ccccc3)CN3CCCC3CN3CCNC[C@@H]3Cc3ccccc3)C[C@@H]2Cc2ccccc2)cc1 (stereo not given in full)	3.9 (≈ 5.95 µM)	0.23	98	0.88 (≈ 1.34 µM)
CC(CCN1CCN([C@@H](Cc2ccccc2)CN2CCCC2CN2CCNC[C@@H]2Cc2ccccc2)C[C@@H]1Cc1ccccc1)c1ccccc1 (stereo not given in full)	3.9 (≈ 5.7 µM)	0.22	99	0.87 (≈ 1.27 µM)
c1ccc(CCN2CCN([C@@H](Cc3ccccc3)CN3CCCC3CN3CCNC[C@H]3Cc3ccccc3)C[C@@H]2Cc2ccccc2)cc1 (stereo not given in full)	3.9 (≈ 5.95 µM)	0.22	99	0.86 (≈ 1.31 µM)
c1ccc(C[C@H]2CNCCN2CC2CCCN2C[C@H](Cc2ccccc2)N2CCN(CCC3CC4CCC3C4)[C@@H](Cc3ccccc3)C2)cc1 (stereo not given in full)	3.9 (≈ 5.79 µM)	0.22	97	0.87 (≈ 1.29 µM)
c1ccc(CCN2CCN([C@@H](Cc3ccccc3)CN3CCCC3CN3CCNC[C@@H]3Cc3ccccc3)C[C@@H]2CC2CCCCC2)cc1 (stereo not given in full)	3.9 (≈ 5.89 µM)	0.21	99	0.82 (≈ 1.24 µM)
Fc1cccc(CCN2CCN([C@@H](Cc3ccccc3)CN3CCCC3CN3CCNC[C@@H]3Cc3ccccc3)C[C@@H]2Cc2ccccc2)c1 (stereo not given in full)	3.9 (≈ 5.79 µM)	0.21	98	0.8 (≈ 1.19 µM)
CCC(C)CN1CCN([C@@H](Cc2ccccc2)CN2CCCC2CN2CCNC[C@@H]2Cc2ccccc2)C[C@@H]1Cc1ccccc1 (stereo not given in full)	3.9 (≈ 6.27 µM)	0.18	97	0.7 (≈ 1.13 µM)
c1ccc(C[C@H]2CNCCN2CC2CCCN2C[C@H](Cc2ccccc2)N2CCN(CC3CCCCC3)[C@@H](Cc3ccccc3)C2)cc1 (stereo not given in full)	3.9 (≈ 6.02 µM)	0.18	100	0.71 (≈ 1.1 µM)
CCC(C)CCN1C(=N)N([C@@H](Cc2ccccc2)CN2CCCC2CN2C(=N)NC[C@@H]2Cc2ccccc2)C[C@@H]1Cc1ccccc1 (stereo not given in full)	7.8 (≈ 12.3 µM)	4.1	91	32.3 (≈ 50.9 µM)
CC(C)(C)C1CCC(CN2CCN([C@@H](Cc3ccccc3)CN3CCCC3CN3CCNC[C@@H]3Cc3ccccc3)C[C@@H]2Cc2ccccc2)CC1 (stereo not given in full)	2 (≈ 2.84 µM)	0.58	97	1.15 (≈ 1.63 µM)
